From PubChem BioAssay AID1996
In brackets after ≈: the same amount, converted by molar mass.

Conditions: buffer; pH 7.4; 200.0 µM

Point of comparison: `O=C(Nc1cccc(C(F)(F)F)c1)OCc1ccncc1`, solubility kinetic 0.0124 mg/mL (≈ 41.9 µM). Against it:
- Cc1cccc(C2NC(=O)c3ccccc3O2)c1 (stereo not given) — 2-fold higher, 0.0243 mg/mL (≈ 102 µM)
- Cc1cc(=O)oc2cc(OCC(=O)N3CCC(C(N)=O)CC3)ccc12 — higher, > 0.0517 mg/mL
- CC1(C)CC(=O)C=C(Nc2ccccc2N)C1 — higher, > 0.0345 mg/mL
- CSCc1cc(N(C)c2ccccc2)nc(-c2ccccn2)n1 — 3.5-fold higher, 0.0428 mg/mL (≈ 133 µM)
- COc1ccc(C(=O)CCN2CCCC(C)C2)cc1.Cl (stereo not given) — higher, > 0.0447 mg/mL
- CCOC(=O)c1sc(=NC(=O)c2cccs2)n(C)c1C — lower, < 0.0003 mg/mL
- O=C(O)c1cc(O)ccc1NC(=O)C(c1ccccc1)c1ccccc1 — higher, > 0.0521 mg/mL
- Nc1nnc(SCc2c(F)cccc2Cl)s1 — higher, > 0.0414 mg/mL
- c1ccc(NCc2ccccn2)cc1 — 2-fold higher, 0.0246 mg/mL (≈ 134 µM)
- CN(C)c1ccc(NC(=O)C[n+]2ccccc2)cc1.[Cl-] — higher, > 0.0438 mg/mL
- Cc1ccccc1OC(C)C(=O)Nc1ccc2c(c1)OCO2 (stereo not given) — 3.1-fold higher, 0.0388 mg/mL (≈ 130 µM)
- CC(CC(=O)NCCc1ccc(F)cc1)c1ccccc1 (stereo not given) — 3.2-fold higher, 0.0393 mg/mL (≈ 138 µM)
- CC#CC[N+](C)(C)CCCCCC.[Cl-] — 2.2-fold higher, 0.0278 mg/mL
- Cc1ccc(CCC(=O)Nc2ccc(CC(=O)O)cc2)o1 — higher, > 0.0431 mg/mL
- Cc1cccc(C)c1OCC1CNC(=O)O1 (stereo not given) — 2-fold higher, 0.0248 mg/mL (≈ 112 µM)
- S=C(NCc1ccc(Cl)cc1)NCc1ccccn1 — 2.8-fold higher, 0.0351 mg/mL (≈ 120 µM)
- Cc1ccc(Nc2nc(-c3cccnc3)nc3ccccc23)cc1 — 21-fold lower, 0.0006 mg/mL (≈ 1.92 µM)
- CCOc1ccc(C(=O)Nc2ccc(CN3CCOCC3)cc2)cc1Cl — 2.2-fold higher, 0.0275 mg/mL (≈ 73.4 µM)
- Cn1c(N)c(C(=O)COC(=O)CNC(=O)c2ccc(Cl)cc2Cl)c(=O)n(C)c1=O — within 1.5-fold, 0.0102 mg/mL (≈ 23 µM)
- N#Cc1c(N)n(-c2ccccc2N)c2nc3ccccc3nc12 — 2.3-fold lower, 0.0054 mg/mL (≈ 18 µM)
- CN(C)CCCNCCCNC(=O)/C(=N\O)c1ccccc1 — higher, > 0.046 mg/mL
- O=C(COC(=O)c1nsc(Cl)c1Cl)NC1CCCC1 — higher, > 0.0485 mg/mL
- O=C(CCc1ccccc1)Nc1nccs1 — within 1.5-fold, 0.0179 mg/mL (≈ 77.1 µM)
- Cc1noc2ncnc(N3CCN(c4ccc(F)cc4)CC3)c12 — 7.3-fold lower, 0.0017 mg/mL (≈ 5.43 µM)
- NS(=O)(=O)c1ccc(NC(=S)NC(=O)c2cccs2)cc1 — 2-fold lower, 0.0062 mg/mL (≈ 18.2 µM)
- COc1ccc(CCNC(=O)COC(=O)/C=C/c2ccc3c(c2)OCO3)cc1 — 5.6-fold lower, 0.0022 mg/mL (≈ 5.74 µM)
- Cc1cc(C)c(C)c(S(=O)(=O)N[C@@H](C)C(=O)OCC(=O)NC2CCCC(C)C2C)c1C (stereo not given in full) — 2.2-fold higher, 0.0278 mg/mL (≈ 61.4 µM)
- CN(C)/C=C/C(=O)c1ccc2noc(-c3cccc(F)c3)c2c1 — 1.7-fold lower, 0.0073 mg/mL (≈ 23.5 µM)
- O=C(COC(=O)c1ccc([N+](=O)[O-])cc1)Nc1ccccc1C(=O)NC1CC1 — within 1.5-fold, 0.0085 mg/mL (≈ 22.2 µM)
- C=CCNC(=O)C(=O)NCCCN1CCOCC1 — higher, > 0.0383 mg/mL
- CSc1ncccc1C(=O)Nc1cccc(C)n1 — higher, > 0.0389 mg/mL
- CC(C)CCNC(=O)c1ccc2c(Cl)c3c(nc2c1)CCC3 — 25-fold lower, 0.0005 mg/mL (≈ 1.58 µM)
- O=C(Nc1nnc(-c2ccccc2)o1)c1cccc(S(=O)(=O)N2CCOCC2)c1 — higher, > 0.0622 mg/mL
- C(=N\N1CCN(c2ccccn2)CC1)/c1ccccn1 — higher, > 0.0401 mg/mL
- CC12CCC(C[N+](C)(C)C1)C2(C)C.[I-] (stereo not given) — higher, > 0.0464 mg/mL
- COc1ccc(NC(=O)C2CC(c3ccc(Cl)cc3)=NO2)cc1 (stereo not given) — lower, < 0.0004 mg/mL
- CCC(C)(C)NC(=O)COc1ccc(OCc2ccccc2)cc1 — within 1.5-fold, 0.009 mg/mL (≈ 27.5 µM)
- O=C(c1cccc([N+](=O)[O-])c1)N1CCN(C/C=C/c2ccccc2)CC1 — 4.2-fold higher, 0.052 mg/mL (≈ 148 µM)
- CCOC(=O)N1CCc2c(sc3[nH]c(=S)[nH]c(=S)c23)C1 — 3.5-fold higher, 0.0431 mg/mL (≈ 132 µM)
- COC(=O)c1ccc(C(=O)OC)c(NC(=O)CN2CCC(C)CC2)c1 — 21-fold lower, 0.0006 mg/mL (≈ 1.72 µM)
- Cc1cc(S(=O)(=O)N2CCOCC2)c(C)s1 — higher, > 0.0392 mg/mL
- CCOC(=O)c1sc(NC(=O)CN2CC(C)OC(C)C2)nc1C (stereo not given) — 4-fold higher, 0.049 mg/mL (≈ 144 µM)
- C/C=C/c1ccc(OCC(O)CN2CCCCCCC2)c(OC)c1 (stereo not given) — 2.8-fold higher, 0.0352 mg/mL (≈ 106 µM)
- COC(=O)[C@H](Cc1ccccc1)NC(=O)NCc1ccc(C)cc1 — higher, > 0.049 mg/mL
- CC(NC(=O)c1c(O)c2ccccc2[nH]c1=O)c1ccccc1 (stereo not given) — lower, < 0.0003 mg/mL
- O=[N+]([O-])c1ccc(C2CCCC/C2=N/O)c([N+](=O)[O-])c1 (stereo not given) — within 1.5-fold, 0.0088 mg/mL (≈ 31.5 µM)
- CCCc1ccc(OCc2ccc(C(=O)N3CCCC3)o2)cc1 — 2.1-fold lower, 0.0059 mg/mL (≈ 18.8 µM)
- COC(=O)c1cc(S(=O)(=O)N2CCCCCC2)cn1C — 3.1-fold higher, 0.0388 mg/mL (≈ 129 µM)
- Cc1ccc(C)c(OCCC(=O)OCC(=O)NC(=O)NC2CCCCC2)c1 — 3.2-fold lower, 0.0039 mg/mL (≈ 10.4 µM)
- O=C(CC1OC(=O)c2ccccc21)Nc1cc(Cl)ccc1N1CCOCC1 (stereo not given) — 2.1-fold lower, 0.0058 mg/mL (≈ 15 µM)
- O=C(Nc1ccc(-n2cccc2)cc1)C1CC1 — 1.9-fold lower, 0.0064 mg/mL (≈ 28.3 µM)
- Cc1ccc2cccc(N)c2n1 — 1.5-fold higher, 0.019 mg/mL (≈ 120 µM)
- CCN(CC(=O)NCc1ccc(F)cc1)C(=O)COc1ccccc1[N+](=O)[O-] — higher, > 0.0584 mg/mL
- N#CC1(NC(=O)Cn2cc(C(F)(F)F)ccc2=O)CCCC1 — higher, > 0.047 mg/mL
- Cc1ccccc1C(=O)/C=C1/SCC(=O)N1C — higher, > 0.0371 mg/mL
- Cc1ccc(CC(=O)O/N=C(\N)c2ccccn2)cc1 — 2.2-fold higher, 0.0275 mg/mL (≈ 102 µM)
- Cc1ccc(NS(=O)(=O)N2CCOCC2)cc1 — higher, > 0.0384 mg/mL
- Cc1cc(OCC(=O)NCCN2CCOCC2)cc(C)c1Cl — higher, > 0.049 mg/mL
- Cc1ccc(Cn2c(C)nc3ccc([N+](=O)[O-])cc3c2=O)cc1 — 8.3-fold lower, 0.0015 mg/mL (≈ 4.85 µM)
- O=C(/C=C/c1cccs1)NC(=S)Nc1ccccc1 — 9.5-fold lower, 0.0013 mg/mL (≈ 4.51 µM)
- Cc1ccnc(NC(=O)c2ccc3c(c2)OCO3)c1 — higher, > 0.0384 mg/mL
- Cc1ccccc1NC(=S)NNC(=O)c1ccco1 — higher, > 0.0413 mg/mL
- Cc1cc(=O)cc(C)n1-c1ccc(F)cc1F — higher, > 0.0353 mg/mL
- CSc1nc(-c2cccs2)c(C#N)c(=O)[nH]1 — 3-fold higher, 0.0373 mg/mL (≈ 150 µM)
- CCCN1C(=O)C2(SC(NC(C)=O)=NN2C(C)=O)c2cc(C)cc(C)c21 (stereo not given) — higher, > 0.0562 mg/mL
- Cc1ccc(N2C(=O)C3C4C=CC(CC4)C3C2=O)cc1Cl (stereo not given) — 8.9-fold lower, 0.0014 mg/mL (≈ 4.64 µM)
- O=C(CCCCC(=O)N1CCOCCOCCOCC1)OCc1ccccc1 — 4.5-fold higher, 0.0561 mg/mL (≈ 143 µM)
- Cc1c(C(=O)n2cnc3ccccc32)cccc1[N+](=O)[O-] — 3.2-fold higher, 0.0398 mg/mL (≈ 142 µM)
- Cc1cc(Nc2ccc(Br)cc2)nc(-c2ccccc2O)n1 — lower, < 0.0003 mg/mL
- COc1cc(Nc2ccc(S(N)(=O)=O)cc2)c([N+](=O)[O-])nc1[N+](=O)[O-] — 3.3-fold lower, 0.0038 mg/mL (≈ 10.3 µM)
- O=C(NCc1ccccc1)c1cnc(Cl)c(Cl)c1 — 2.9-fold higher, 0.0359 mg/mL (≈ 128 µM)
- CC1CC(c2ccccc2)=Nc2ccccc2N1 (stereo not given) — 2.1-fold higher, 0.0262 mg/mL (≈ 111 µM)
- CCCc1cc(=O)oc2cc(OCC(=O)N3CCC(C(N)=O)CC3)ccc12 — higher, > 0.0559 mg/mL
- CNC(=O)CSc1nnc(-c2ccccc2)n1C — higher, > 0.0393 mg/mL
- CC(C)(C)C(=O)Nc1cc2c3c(c1)CCN3C(=O)CC2 — higher, > 0.0409 mg/mL
- CCn1c(SCC(=O)O)nc2ccccc21 — higher, > 0.0354 mg/mL
- CC(=O)C1=C(O)C(=O)N(c2ccc(F)cc2)C1c1ccc(C)cc1 (stereo not given) — higher, > 0.0488 mg/mL
- COc1ccccc1OCc1nc(C#N)c(N2CCCC2)o1 — 3.2-fold higher, 0.0391 mg/mL (≈ 131 µM)
- O=[N+]([O-])c1ccc(N(CC2CO2)S(=O)(=O)c2ccccc2)cc1 (stereo not given) — 3.4-fold higher, 0.0419 mg/mL (≈ 125 µM)
- CC1CN(S(=O)(=O)c2cc(C(=O)NCCCN3CCCC3=O)ccc2Cl)CC(C)O1 (stereo not given) — higher, > 0.0687 mg/mL
- O=C(CCNC(=O)c1ccccc1Cl)NC1=NCCS1 — 3.5-fold higher, 0.0428 mg/mL (≈ 137 µM)
- Cc1ccc(S(=O)(=O)C(C#N)=C2N(C)c3ccccc3N2C)cc1 — 1.6-fold lower, 0.0079 mg/mL (≈ 23.3 µM)
- O=C(NCCCn1ccnc1)/C(=C/c1ccco1)NC(=O)c1ccco1 — higher, > 0.0532 mg/mL
- CC(=O)c1cc2c(cc1NS(=O)(=O)c1ccc(F)cc1)OCO2 — lower, < 0.0007 mg/mL
